Measured values reported in PubChem BioAssay AID488890 (Southern Research Specialized Biocontainment Screening …, 2010).
pIC50: −log10 of the molar value. Records with an inconclusive call do not appear. Calls of active or inactive are those of the source. How the calls were made is not given here.

test system: Mycobacterium tuberculosis non-replicating, growth inhibition; assay: growth inhibition of non-replicating M. tuberculosis (AID 488890)

| SMILES | pIC50 | IC50 |
| --- | --- | --- |
| O=C(N=Nc1c(O)[nH]c2ccc(Br)cc12)c1ccccc1-n1cccc1 | 5.23 | – |
| COc1cccc(OC(=O)c2cc3ccccc3oc2=O)c1 | – | 14.2 µM (inactive) |
| COc1ccc(OCC(=O)N/N=C2\CCc3ccccc32)cc1 | 5.03 | – |
| CCCCNC(=O)N1CCc2ccccc2C1 | 5.30 | – |
| Cc1ccc(-c2nc3ccccn3c2Nc2ccccc2)o1 | 5.08 | – |
| CCc1c(C)c2ccc(OCC(=O)OC)cc2oc1=O | 5.04 | – |
| COc1cc(/C=C2\C(=O)N(c3ccc(S(N)(=O)=O)cc3)N=C2C)ccc1OC(=O)c1ccco1 | 5.13 | – |
| CCOc1ccc(CC(=O)N2N=C(C)CC2(O)C(F)(F)F)cc1 (stereo not drawn) | – | 13.3 µM (inactive) |
| Cc1nnc(N/N=C/c2ccc(Br)cc2)n1N | 5.89 | – |
| C[C@@H]1CN=C2N(CCNC(=O)CCC3CCCCC3)[C@H](Cc3ccc(O)cc3)CN21 | – | 18.9 µM (inactive) |
| CCOc1ccc(C(=O)CCN2CCCCCC2)cc1 | 5.61 | – |
| O=C(CNC(=O)c1ccco1)OCc1ccc(C(=O)Oc2ccccc2)cc1 | 5.09 | – |
| CCCC(=O)Nc1cccc(-c2nc3ccccc3c(=O)o2)c1 | 6.01 | – |
| CC(/C=C/c1ccc2c(c1)OCO2)=N/NC(=O)C1COc2ccccc2O1 (stereo not drawn) | 5.34 | – |
| Cc1ncsc1CCOC(=O)c1ccc([N+](=O)[O-])cc1 | – | 10.4 µM (inactive) |
| COC(=O)c1cc2c(ccc3ccccc32)oc1=O | 5.20 | – |
| O=Cc1ccnc(-c2ccc(OC(=O)c3ccco3)cc2)n1 | – | 18.2 µM (inactive) |
| CC(=O)N1CCN(c2cc3c(cc2F)c(=O)c(C(=O)O)cn3C2CC2)CC1 | 5.85 | – |
| CN1C(=O)CC(N2CCC(c3nc4ccccc4s3)CC2)C1=O (stereo not drawn) | – | 32.6 µM (inactive) |
| O=C(COC(=O)CC12CC3CC(CC(C3)C1)C2)Nc1cccnc1Cl | – | 15.2 µM (inactive) |

| SMILES | pIC50 | IC50 |
| --- | --- | --- |
| Nc1nc2ccccc2n1C(=O)c1ccc(F)cc1 | – | 13.2 µM (inactive) |
| CC(=O)Oc1ccc(N2C(=O)c3cccc4c([N+](=O)[O-])ccc(c34)C2=O)cc1 | 6.43 | – |
| Cc1ccc(OC(=O)c2sc3ncn(C)c(=O)c3c2C)cc1 | – | 14.2 µM (inactive) |
| NC1CCN(c2c(F)cc3c(=O)c(C(=O)O)cn(C4CC4)c3c2Cl)C1 (stereo not drawn) | 6.82 | – |
| CSc1ccc(N=Nc2c(C)[nH]n(C)c2=O)cc1 | – | 20.6 µM (inactive) |
| CC(C)c1ccc2[nH]c3c(c2c1)CCC/C3=N\NC(=O)c1ccncc1 | 5.06 | – |
| N=c1oc2ccccc2cc1C(=O)NC1CCCCCC1 | 5.14 | – |
| CC1=NN(C(=O)c2cc(C)nn2C)C(O)(C(F)(F)F)C1 (stereo not drawn) | 5.12 | – |
| CCOc1ccc(-c2cc(CCCC(=O)NCCC(C)C)no2)cc1 | – | 18.2 µM (inactive) |
| COc1cccc(C(=O)OCC(=O)c2ccc(Br)s2)c1OC | 5.04 | – |
| N=c1n(CCN2CCCCC2)c2ccccc2n1CC(=O)c1ccc(Cl)c(Cl)c1 | – | 21.5 µM (inactive) |
| Cc1cc(C(=O)COc2cccc3cccnc23)c(C)n1C | 5.29 | – |
| CC(/C=C\C=C\c1ccccc1)=N\NC(=O)c1cncc(Br)c1 | – | 31.2 µM (inactive) |
| CC(NC(=O)c1cc([N+](=O)[O-])cc([N+](=O)[O-])c1)c1ccc(-n2ccnc2)cc1 (stereo not drawn) | 5.27 | – |
| CC(NCCCOc1cccc2ccccc12)c1ccccc1 (stereo not drawn) | – | 15.5 µM (inactive) |
| COC(=O)c1c(NC(=O)c2ccc([N+](=O)[O-])o2)sc2c1CCN(C(C)C)C2 | 6.82 | – |
| COc1cc(N=c2ssnc2Cl)cc(OC)c1 | – | 19.3 µM (inactive) |
| C/C(=N\NC(=O)c1cc2ccccc2cc1O)c1ccc(C)o1 | 5.69 | – |
| COc1ccc(CN=C2NN=C(c3ccc(Cl)cc3)CS2)cc1 | – | 13.8 µM (inactive) |
| Cc1ccc(/C=N/NC(=O)c2ccncc2)o1 | 5.68 | – |

| SMILES | pIC50 | IC50 |
| --- | --- | --- |
| O=C(N/N=C\c1ccco1)c1cncc(Br)c1 | – | 38.1 µM (inactive) |
| CC1CCN(C(=O)COC(=O)CCc2c[nH]c3ccccc23)CC1 | – | 12.8 µM (inactive) |
| Cc1cccc(C)c1NC(=O)COC(=O)CCc1c[nH]c2ccccc12 | – | 19.3 µM (inactive) |
| O=C(Nc1ccc(Cc2ccncc2)cc1)c1ccc([N+](=O)[O-])o1 | 5.76 | – |
| O=C(N/N=C/c1cccc([N+](=O)[O-])c1O)c1cccs1 | 5.63 | – |
| CC1(C)C[C@H]2C=C(C=O)[C@]3(C=O)C[C@]3(C)[C@H]2C1 | 5.53 | – |
| COc1ccc(C(=O)N/N=C(\C)c2ccccn2)cc1OC | 5.31 | – |
| O=C(N/N=C/C(Br)=C/c1ccccc1)c1ccncc1 | 5.41 | – |
| Cc1ccc(C)c(-c2nnc(NC(=O)COc3ccccc3)o2)c1 | 5.89 | – |
| Cc1ccc2oc(=O)c3cc(C(=O)NCCCN4CCCCCC4)sc3c2c1 | – | 15.8 µM (inactive) |
| COc1ccc(C(=O)C=CNNC(=O)c2ccc(Cl)cc2)cc1 | 6.32 | – |
| CCCC(=O)OCCNc1cc(Sc2nccn2C)c2nonc2c1[N+](=O)[O-] | 5.59 | – |
| Cc1cccc(OC(=O)c2ccc3nccnc3c2)c1 | 5.11 | – |
| CC(C)CCC1=NN(C(=O)c2ccco2)C(O)(C(F)(F)F)C1 (stereo not drawn) | 6.03 | – |
| Cc1cc(C)nc(/N=C(\N)Nc2ccc(-c3ccccc3)cc2)n1 | 5.46 | – |
| COC(=O)COc1cccc(NC(=O)c2cccc(C)c2)c1 | 5.03 | – |
| CC(C)(C)NC(=O)C(=O)NNC(=O)COc1ccc(Br)cc1 | – | 12 µM (inactive) |
| OC(COc1ccc2ccccc2c1Br)Cn1ccnc1 (stereo not drawn) | – | 33 µM (inactive) |
